Source: ChEMBL document CHEMBL3112450, “Synthesis and in vitro antitumor evaluation of primary amine substituted quinazoline linked benzimidazole” (Bioorg Med Chem Lett, 2014)

Key:
Format in all cases: functional
HOP-92 = assay: Cytotoxicity against human HOP92 cells assessed as growth inhibition at 10 uM after 48 hrs by SRB assay; conditions: HOP-92, 48 h, read-out: GI
HCT-116 = assay: Cytotoxicity against human HCT116 cells assessed as cell growth at 10^-4 M after 48 hrs by SRB assay; conditions: HCT-116, 48 h, read-out: Activity
LOX IMVI [1] = assay: Cytotoxicity against human LOXIMVI cells assessed as cell growth at 10^-6 M after 48 hrs by SRB assay; conditions: read-out: Activity
SF-268 [2] = assay: Cytotoxicity against human SF268 cells assessed as cell growth at 10^-7 M after 48 hrs by SRB assay; conditions: SF-268, 48 h, read-out: Activity
OVCAR-8 = assay: Cytotoxicity against human OVCAR8 cells after 48 hrs by SRB assay; conditions: OVCAR-8, 48 h
NCI-H460 [3] = assay: Cytotoxicity against human NCI-H460 cells assessed as cell growth at 10^-8 M after 48 hrs by SRB assay; conditions: NCI-H460, 48 h, read-out: Activity
HL-60(TB) = assay: Cytotoxicity against human HL-60(TB) cells assessed as cell growth at 10^-4 M after 48 hrs by SRB assay; conditions: HL-60, 48 h, read-out: Activity
SF-268 [4] = assay: Cytotoxicity against human SF268 cells assessed as cell growth at 10^-4 M after 48 hrs by SRB assay; conditions: SF-268, 48 h, read-out: Activity
SK-MEL-28 [5] = assay: Cytotoxicity against human SK-MEL-28 cells assessed as cell growth at 10^-4 M after 48 hrs by SRB assay; conditions: SK-MEL-28, 48 h, read-out: Activity
CAKI-1 [6] = assay: Cytotoxicity against human Caki1 cells assessed as cell growth at 10^-6 M after 48 hrs by SRB assay; conditions: CAKI-1, 48 h, read-out: Activity
LOX IMVI [7] = assay: Cytotoxicity against human LOXIMVI cells after 48 hrs by SRB assay
A498 = assay: Cytotoxicity against human A498 cells assessed as cell growth at 10^-8 M after 48 hrs by SRB assay; conditions: A498, 48 h, read-out: Activity
SF-539 = assay: Cytotoxicity against human SF539 cells assessed as cell growth at 10^-8 M after 48 hrs by SRB assay; conditions: SF-539, 48 h, read-out: Activity
SK-MEL-28 [8] = assay: Cytotoxicity against human SK-MEL-28 cells assessed as cell growth at 10^-6 M after 48 hrs by SRB assay; conditions: SK-MEL-28, 48 h, read-out: Activity
RPMI-8226 = assay: Cytotoxicity against human RPMI8226 cells assessed as cell growth at 10^-6 M after 48 hrs by SRB assay; conditions: RPMI-8226, 48 h, read-out: Activity
CCRF-CEM [9] = assay: Cytotoxicity against human CCRF-CEM cells assessed as cell growth at 10^-8 M after 48 hrs by SRB assay; conditions: read-out: Activity
HOP-62 = assay: Cytotoxicity against human HOP62 cells assessed as cell growth at 10^-4 M after 48 hrs by SRB assay; conditions: HOP-62, 48 h, read-out: Activity
MCF7 = assay: Cytotoxicity against human MCF7 cells assessed as cell growth at 10^-8 M after 48 hrs by SRB assay; conditions: MCF7, 48 h, read-out: Activity
TK-10 [10] = assay: Cytotoxicity against human TK10 cells after 48 hrs by SRB assay; conditions: TK-10, 48 h
U-251 = assay: Cytotoxicity against human U251 cells after 48 hrs by SRB assay; conditions: U-251, 48 h
MDA-MB-231 [11] = assay: Cytotoxicity against human MDA-MB-231 cells assessed as cell growth at 10^-6 M after 48 hrs by SRB assay; conditions: MDA-MB-231, 48 h, read-out: Activity
NCI-H23 = assay: Cytotoxicity against human NCI-H23 cells assessed as cell growth at 10^-7 M after 48 hrs by SRB assay; conditions: NCI-H23, 48 h, read-out: Activity
TK-10 [12] = assay: Cytotoxicity against human TK10 cells assessed as cell growth at 10^-6 M after 48 hrs by SRB assay; conditions: TK-10, 48 h, read-out: Activity
SF-295 = assay: Cytotoxicity against human SF295 cells assessed as cell growth at 10^-6 M after 48 hrs by SRB assay; conditions: SF-295, 48 h, read-out: Activity
SK-OV-3 = assay: Cytotoxicity against human SKOV3 cells assessed as cell growth at 10^-8 M after 48 hrs by SRB assay; conditions: SK-OV-3, 48 h, read-out: Activity
CAKI-1 [13] = assay: Cytotoxicity against human Caki1 cells assessed as cell growth at 10^-7 M after 48 hrs by SRB assay; conditions: CAKI-1, 48 h, read-out: Activity
SW-620 = assay: Cytotoxicity against human SW620 cells assessed as cell growth at 10^-6 M after 48 hrs by SRB assay; conditions: SW-620, 48 h, read-out: Activity
MOLT-4 = assay: Cytotoxicity against human MOLT4 cells assessed as cell growth at 10^-7 M after 48 hrs by SRB assay; conditions: MOLT-4, 48 h, read-out: Activity
DU-145 = assay: Cytotoxicity against human DU145 cells assessed as cell growth at 10^-7 M after 48 hrs by SRB assay; conditions: DU-145, 48 h, read-out: Activity
MDA-MB-231 [14] = assay: Cytotoxicity against human MDA-MB-231 cells assessed as cell growth at 10^-8 M after 48 hrs by SRB assay; conditions: MDA-MB-231, 48 h, read-out: Activity
MDA-MB-435 = assay: Cytotoxicity against human MDA-MB-435 cells assessed as cell growth at 10^-4 M after 48 hrs by SRB assay; conditions: MDA-MB-435, 48 h, read-out: Activity
[15] = Cytotoxicity against human OVCAR5 cells assessed as cell growth at 10^-7 M after 48 hrs by SRB assay; conditions: OVCAR-5, 48 h, read-out: Activity
OVCAR-3 = assay: Cytotoxicity against human OVCAR3 cells after 48 hrs by SRB assay; conditions: OVCAR-3, 48 h
RXF 393 [16] = assay: Cytotoxicity against human RXF393 cells assessed as cell growth at 10^-7 M after 48 hrs by SRB assay; conditions: RXF 393, 48 h, read-out: Activity
CCRF-CEM [17] = assay: Cytotoxicity against human CCRF-CEM cells assessed as cell growth at 10^-7 M after 48 hrs by SRB assay; conditions: read-out: Activity
ACHN = assay: Cytotoxicity against human ACHN cells assessed as cell growth at 10^-7 M after 48 hrs by SRB assay; conditions: read-out: Activity
RXF 393 [18] = assay: Cytotoxicity against human RXF393 cells assessed as cell growth at 10^-6 M after 48 hrs by SRB assay; conditions: RXF 393, 48 h, read-out: Activity
NCI-H460 [19] = assay: Cytotoxicity against human NCI-H460 cells after 48 hrs by SRB assay; conditions: NCI-H460, 48 h

Work on C=CCn1c(C)nc2ccc(Nc3nc(Nc4ncccn4)nc4ccccc34)cc21 yielded an inhibition of growth at 10 µM (HOP-92) of 30%.

Compound C=CCn1c(C)nc2ccc(Nc3nc(NCCO)nc4ccccc34)cc21 has an inhibition of growth at 10 µM (HOP-92) of 30%.

C=CCn1c(C)nc2ccc(Nc3nc(Nc4ccc5nc(C)n(CC=C)c5c4)c4ccccc4n3)cc21 showed a growth at 100 µM (HCT-116) of 1%, a growth at 1 µM (LOX IMVI [1]) of 83% and a growth at 0.1 µM (SF-268 [2]) of 86%. For the same compound, the GI50 (OVCAR-8) was 1560 nM, the TGI (OVCAR-8) was 3250 nM and the growth at 0.01 µM (NCI-H460 [3]) was 102%. It also gave a growth at 100 µM (HL-60(TB)) of -32%, a growth at 100 µM (SF-268 [4]) of -33% and a growth at 100 µM (SK-MEL-28 [5]) of -39%. The growth at 1 µM (CAKI-1 [6]) was 90%, the GI50 (LOX IMVI [7]) was 1550 nM and the growth at 0.01 µM (A498) was 69%. It also gave a growth at 0.01 µM (SF-539) of 96%, a growth at 1 µM (SK-MEL-28 [8]) of 102% and a growth at 1 µM (RPMI-8226) of 83%. For the same compound, the growth at 0.01 µM (CCRF-CEM [9]) was 97%, the growth at 100 µM (HOP-62) was -36% and the growth at 0.01 µM (MCF7) was 92%. The GI50 (TK-10 [10]) was 2040 nM, the TGI (TK-10 [10]) was 3500 nM and the GI50 (U-251) was 1620 nM. It also gave a TGI (U-251) of 2970 nM, an inhibition of growth at 10 µM (HOP-92) of 50% and a growth at 1 µM (MDA-MB-231 [11]) of 72%. For the same compound, the growth at 0.1 µM (NCI-H23) was 91%, the growth at 1 µM (TK-10 [12]) was 116% and the growth at 1 µM (SF-295) was 97%. The growth at 0.01 µM (SK-OV-3) was 97%, the growth at 0.1 µM (CAKI-1 [13]) was 90% and the growth at 1 µM (SW-620) was 80%. For the same compound, the growth at 0.1 µM (MOLT-4) was 94%, the growth at 0.1 µM (DU-145) was 100% and the growth at 0.01 µM (MDA-MB-231 [14]) was 92%. For the same compound, the growth at 100 µM (MDA-MB-435) was -5%, the growth at 0.1 µM [15] was 91% and the GI50 (OVCAR-3) was 1700 nM. For the same compound, the TGI (OVCAR-3) was 3080 nM, the growth at 0.1 µM (RXF 393 [16]) was 96% and the growth at 0.1 µM (CCRF-CEM [17]) was 96%. For the same compound, the growth at 0.1 µM (ACHN) was 92%, the growth at 1 µM (RXF 393 [18]) was 99% and the GI50 (NCI-H460 [19]) was 1890 nM. For the same compound, the TGI (NCI-H460 [19]) was 3700 nM.
